According to patent US4471131A, “Novel silyl esters of N-phosphonomethylglycine” (Monsanto Company, priority 1983, dated 1984):

Experiments:
Experiment in all cases: post-emergence herbicidal activity, greenhouse
Assay type in all cases: in vivo
[1] = tested on: Velvetleaf
Excerpt: (§1) A good grade of top soil is placed in aluminum pans having holes in the bottom and compacted to a depth of 0.95 to 1.27 cm. from the top of the pan. A predetermined number of seeds of each of several dicotyledonous and moncotyledonous annual plant species and/or vegetative propagules for the perennial plant species were placed on the soil and pressed into the soil surface. The seeds and/or vegetative propagules are covered with soil and leveled. The pans are then placed on a sand bench in the greenhouse and watered from below as needed. After the plants reach the desired age (two to three weeks), each pan, except for the control pans, is removed individually to a spraying chamber and sprayed by means of an atomizer at the rates noted. In the spray solution is an amount of an emulsifying agent mixture to give a spray solution or suspension which contains about 0.4% by weight of the emulsifier. The spray solution or suspension contains a sufficient amount of the candidate chemical in order to give application rates corresponding to those set forth in the tables. The pans were returned to the greenhouse and watered as before and the injury to the plants as compared to the control is observed at approximately two and four weeks and the results recorded. In the tables, WAT means "weeks after treatment."
(§2) The post-emergent herbicidal activity index used in Tables II and III is as follows:
(§3) The plant species utilized in these tests are identified by letter in accordance with the following legend: […]

[2] = tested on: Wild Buckwheat; conditions: Table III, 2 WAT
Excerpt: as §1, §2, §3

[3] = tested on: Pennsylvania Smartweed
Excerpt: as §1, §2, §3

[4] = tested on: Yellow Nutsedge; conditions: Table II, formulated immediately prior to treatment
Excerpt: as §1, §2, §3

[5] = tested on: Johnsongrass; conditions: Table II, formulated immediately prior to treatment
Excerpt: as §1, §2, §3

[6] = tested on: Sugar Beet; conditions: Table III, 2 WAT
Excerpt: as §1, §2, §3

[7] = tested on: Downy Brome
Excerpt: as §1, §2, §3

[8] = tested on: Rice; conditions: Table III, 2 WAT
Excerpt: as §1, §2, §3

[9] = tested on: Hemp Sesbania; conditions: Table III, 2 WAT
Excerpt: as §1, §2, §3

[10] = tested on: Common Lambsquarters
Excerpt: as §1, §2, §3

[11] = tested on: Cocklebur
Excerpt: as §1, §2, §3

[12] = tested on: Morningglory
Excerpt: as §1, §2, §3

[13] = tested on: Large Crabgrass; conditions: Table III, 2 WAT
Excerpt: as §1, §2, §3

[14] = tested on: Canada Thistle; conditions: Table II, formulated immediately prior to treatment
Excerpt: as §1, §2, §3

[15] = tested on: Panicum Spp; conditions: Table III, 2 WAT
Excerpt: as §1, §2, §3

[16] = tested on: Soybean; conditions: Table III, 2 WAT
Excerpt: as §1, §2, §3

[17] = tested on: Quackgrass; conditions: Table II, formulated immediately prior to treatment
Excerpt: as §1, §2, §3

[18] = tested on: Barnyardgrass
Excerpt: as §1, §2, §3

[19] = Table II, 2 WAT, 5.6 kg/h, formulated immediately prior to treatment
[20] = Table II, 2 WAT, 11.2 kg/h, formulated immediately prior to treatment
[21] = Table II, 4 WAT, 5.6 kg/h, formulated immediately prior to treatment
[22] = Table II, 4 WAT, 11.2 kg/h, formulated immediately prior to treatment

CC(C)OC(=O)CNCP(=O)(O)O[Si](c1ccccc1)(c1ccccc1)C(C)(C)C [Ex. 2, Glycine, N((([(1,1-Dimethylethyl)Diphenylsilyl]oxy)-Hydroxyphosphinyl)-, methyl)-, 1-Methylethyl Ester]
Plant Response Index (C) [1, 19]: 2 (50-74% inhibition) | Plant Response Index (C) [1, 20]: 3 (75-99% inhibition) | Plant Response Index (C) [1, 21]: 2 (50-74% inhibition) | Plant Response Index (C) [1, 22]: 3 (75-99% inhibition) | Plant Response Index (C) ([1]; Table III, 2 WAT, 1.1 kg/h): 0 (0-24% inhibition) | Plant Response Index (C) ([1]; Table III, 2 WAT, 5.6 kg/h): 3 (75-99% inhibition) | Plant Response Index (Q) ([2]; 1.1 kg/h): 0 (0-24% inhibition) | Plant Response Index (Q) ([2]; 5.6 kg/h): 3 (75-99% inhibition) | Plant Response Index (F) [3, 19]: 3 (75-99% inhibition) | Plant Response Index (F) [3, 20]: 4 (100% inhibition) | Plant Response Index (F) [3, 21]: 4 (100% inhibition) | Plant Response Index (F) [3, 22]: 4 (100% inhibition) | Plant Response Index (F) ([3]; Table III, 2 WAT, 1.1 kg/h): 3 (75-99% inhibition) | Plant Response Index (F) ([3]; Table III, 2 WAT, 5.6 kg/h): 3 (75-99% inhibition) | Plant Response Index (G) ([4]; 2 WAT, 5.6 kg/h): 2 (50-74% inhibition) | Plant Response Index (G) ([4]; 2 WAT, 11.2 kg/h): 2 (50-74% inhibition) | Plant Response Index (G) ([4]; 4 WAT, 5.6 kg/h): 3 (75-99% inhibition) | Plant Response Index (G) ([4]; 4 WAT, 11.2 kg/h): 2 (50-74% inhibition) | Plant Response Index (I) ([5]; 2 WAT, 5.6 kg/h): 3 (75-99% inhibition) | Plant Response Index (I) ([5]; 2 WAT, 11.2 kg/h): 3 (75-99% inhibition) | Plant Response Index (I) ([5]; 4 WAT, 5.6 kg/h): 3 (75-99% inhibition) | Plant Response Index (I) ([5]; 4 WAT, 11.2 kg/h): 3 (75-99% inhibition) | Plant Response Index (M) ([6]; 1.1 kg/h): 0 (0-24% inhibition) | Plant Response Index (M) ([6]; 5.6 kg/h): 2 (50-74% inhibition) | Plant Response Index (J) [7, 19]: 2 (50-74% inhibition) | Plant Response Index (J) [7, 20]: 3 (75-99% inhibition) | Plant Response Index (J) [7, 21]: 2 (50-74% inhibition) | Plant Response Index (J) [7, 22]: 3 (75-99% inhibition) | Plant Response Index (J) ([7]; Table III, 2 WAT, 1.1 kg/h): 0 (0-24% inhibition) | Plant Response Index (J) ([7]; Table III, 2 WAT, 5.6 kg/h): 3 (75-99% inhibition) | Plant Response Index (O) ([8]; 1.1 kg/h): 0 (0-24% inhibition) | Plant Response Index (O) ([8]; 5.6 kg/h): 3 (75-99% inhibition) | Plant Response Index (R) ([9]; 1.1 kg/h): 0 (0-24% inhibition) | Plant Response Index (R) ([9]; 5.6 kg/h): 3 (75-99% inhibition) | Plant Response Index (E) [10, 19]: 3 (75-99% inhibition) | Plant Response Index (E) [10, 20]: 3 (75-99% inhibition) | Plant Response Index (E) [10, 21]: 2 (50-74% inhibition) | Plant Response Index (E) [10, 22]: 3 (75-99% inhibition) | Plant Response Index (E) ([10]; Table III, 2 WAT, 1.1 kg/h): 3 (75-99% inhibition) | Plant Response Index (E) ([10]; Table III, 2 WAT, 5.6 kg/h): 3 (75-99% inhibition) | Plant Response Index (B) [11, 19]: 2 (50-74% inhibition) | Plant Response Index (B) [11, 20]: 3 (75-99% inhibition) | Plant Response Index (B) [11, 21]: 2 (50-74% inhibition) | Plant Response Index (B) [11, 22]: 3 (75-99% inhibition) | Plant Response Index (B) ([11]; Table III, 2 WAT, 1.1 kg/h): 0 (0-24% inhibition) | Plant Response Index (B) ([11]; Table III, 2 WAT, 5.6 kg/h): 3 (75-99% inhibition) | Plant Response Index (D) [12, 19]: 2 (50-74% inhibition) | Plant Response Index (D) [12, 20]: 3 (75-99% inhibition) | Plant Response Index (D) [12, 21]: 2 (50-74% inhibition) | Plant Response Index (D) [12, 22]: 3 (75-99% inhibition) | Plant Response Index (D) ([12]; Table III, 2 WAT, 1.1 kg/h): 0 (0-24% inhibition) | Plant Response Index (D) ([12]; Table III, 2 WAT, 5.6 kg/h): 3 (75-99% inhibition) | Plant Response Index (T) ([13]; 1.1 kg/h): 2 (50-74% inhibition) | Plant Response Index (T) ([13]; 5.6 kg/h): 3 (75-99% inhibition) | Plant Response Index (A) ([14]; 2 WAT, 5.6 kg/h): 3 (75-99% inhibition) | Plant Response Index (A) ([14]; 2 WAT, 11.2 kg/h): 1 (25-49% inhibition) | Plant Response Index (A) ([14]; 4 WAT, 5.6 kg/h): 3 (75-99% inhibition) | Plant Response Index (A) ([14]; 4 WAT, 11.2 kg/h): 1 (25-49% inhibition) | Plant Response Index (S) ([15]; 1.1 kg/h): 0 (0-24% inhibition) | Plant Response Index (S) ([15]; 5.6 kg/h): 3 (75-99% inhibition) | Plant Response Index (L) ([16]; 1.1 kg/h): 0 (0-24% inhibition) | Plant Response Index (L) ([16]; 5.6 kg/h): 2 (50-74% inhibition) | Plant Response Index (H) ([17]; 2 WAT, 5.6 kg/h): 3 (75-99% inhibition) | Plant Response Index (H) ([17]; 2 WAT, 11.2 kg/h): 3 (75-99% inhibition) | Plant Response Index (H) ([17]; 4 WAT, 5.6 kg/h): 3 (75-99% inhibition) | Plant Response Index (H) ([17]; 4 WAT, 11.2 kg/h): 4 (100% inhibition) | Plant Response Index (K) [18, 19]: 3 (75-99% inhibition) | Plant Response Index (K) [18, 20]: 3 (75-99% inhibition) | Plant Response Index (K) [18, 21]: 3 (75-99% inhibition) | Plant Response Index (K) [18, 22]: 3 (75-99% inhibition) | Plant Response Index (K) ([18]; Table III, 2 WAT, 1.1 kg/h): 1 (25-49% inhibition) | Plant Response Index (K) ([18]; Table III, 2 WAT, 5.6 kg/h): 3 (75-99% inhibition)
